Experimental data as given in patent US20190225650A1, “PEPTIDOMIMETIC MACROCYCLES AND USE THEREOF IN REGULATING HIF1ALPHA” (AILERON THERAPEUTICS, INC., priority 2013, published 2019).
Bridge positions count the residues as written; N and C are the ends. Square brackets hold non-standard residues; d marks the D form. Peptide text beside a SMILES is read from it. R8 = C=CCCCCCC[C@@](C)(N)C(=O)O; S5 = C=CCCC[C@](C)(N)C(=O)O; Nle = CCCC[C@H](N)C(=O)O

Columns and labels:
HRE-bla ME-180 cells [1] = assay: Cell proliferation assay (viability, MTT, 1% FBS); format: cell-based, human
Outline: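 ME-180 cells (2×10^4/well) in Opti-MEM with 1% FBS were pretreated 16 h under normoxia (21% O2), vehicle 0.5% DMSO final. Incubation then continued under normoxia or hypoxia (1% O2); viable cells quantified by MTT-type CellTiter 96 assay.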

[2] = target: T1, flag-tagged HIF1α (AA 786-826) / His6-tagged p300 (AA 323-423) complex (Homo sapiens, UniProt Q09472); assay: HIF1α p300 displacement assay (TR FRET, +CHAPS); format: binding; conditions: read-out: IC50 (nM) (HIF1α_p300 Displacement + CHAPS)
T1 construct: His6-tagged p300 (AA 323-423); made in house; host or cells: E. coli (pETDuet vector)
Outline: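 The co-expressed flag-HIF1α (786-826)/His6-p300 (323-423) complex, purified from E. coli with 0.1 mM ZnSO4, was used at 300 nM final with competitor peptides for 1 h at room temperature. Buffer was 150 mM NaCl, 20 mM HEPES pH 7.4, 7.5 mM CHAPS and 1 mM DTT. Anti-Flag-K (0.5 μM) and anti-His-D2 (4 nM) were then added for 2 h, and IC50s were fitted from the TR-FRET ratio.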

HRE-bla ME-180 cells [3] = assay: Reporter gene assay (HRE-bla ME-180 HIF reporter, GeneBLAzer); format: cell-based, human; conditions: for EC50: 24 hour normoxia
Outline: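 A FRET β-lactamase readout of HIF transcription was used. After compound treatment in 0.3% DMSO/media under normoxic conditions, 20 μl of 6× LiveBLAzer-FRET B/G (CCF4-AM) substrate was added. Plates sat 3 hr at room temperature in the dark and were read at 409 Ex/460Em and 409Ex/530Em on a Synergy 2. Inhibition was compared against DMSO vehicle controls, with chetomin as positive control.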

Row | Structure (SMILES) | Viability 1% FBS AVG (MTT V3-24 hr Normoxia) (μM) (HRE-bla ME-180 cells [1]) | IC50 [2] | 18 h Avg % max inhibition at top conc (HIF Rptr-24 hrs normoxia) (μM) (HRE-bla ME-180 cells [3]) | EC50 (HRE-bla ME-180 cells [3])
1 | CCCC[C@H](NC(=O)[C@H](CCC(=O)O)NC(=O)[C@@H](NC(=O)[C@@H](NC(=O)[C@H](CC(C)C)NC(=O)[C@]1(C)CCCC=CCCC[C@](C)(NC(=O)[C@H](CCC(=O)O)NC(=O)[C@H](CC(=O)O)NC(=O)[C@@H](NC(=O)[C@H](CC(N)=O)NC(=O)[C@@H](NC(=O)[C@]2(C)CCCC=CCCCCCC[C@@](C)(NC(=O)[C@H](CCC(=O)O)NC(=O)CNC(=O)[C@H](CCC(N)=O)NC(=O)[C@H](CC(C)C)NC(=O)[C@H](CC(C)C)NC(C)=O)C(=O)N[C@@H](CC(C)C)C(=O)N[C@@H](CC(C)C)C(=O)N[C@@H](CCCNC(=N)N)C(=O)N[C@@H](C)C(=O)N[C@@H](CC(C)C)C(=O)N[C@@H](CC(=O)O)C(=O)N2)C(C)C)[C@@H](C)CC)C(=O)N[C@@H](C(C)C)C(=O)N[C@@H](CC(C)C)C(=O)N[C@@H](CCCC)C(=O)N1)C(C)C)[C@@H](C)CC)C(=O)NCC(N)=O [SP-328] (Ac-LLQGE[R8]LLRALD[S5]VNIDE[S5]VL[Nle][S5]LVIE[Nle]G-NH2; staple 6-13, 19-23) | ++++ (≥30: ++++) | ≤ 200 nM | + (<10: +) | > 30 µM
2 | CCCC[C@H](NC(=O)[C@H](CCC(=O)O)NC(=O)[C@]1(C)CCCC=CCCCCCC[C@@](C)(NC(=O)[C@H](CCC(=O)O)NC(=O)[C@H](CC(=O)O)NC(=O)[C@@H](NC(=O)[C@H](CC(N)=O)NC(=O)[C@@H](NC(=O)[C@]2(C)CCCC=CCCCCCC[C@@](C)(NC(=O)[C@H](CCC(=O)O)NC(=O)[C@H](C)NC(=O)[C@H](CCC(N)=O)NC(=O)[C@H](CC(C)C)NC(=O)[C@H](CC(C)C)NC(C)=O)C(=O)N[C@@H](CC(C)C)C(=O)N[C@@H](CC(C)C)C(=O)N[C@@H](CCCNC(=N)N)C(=O)N[C@@H](C)C(=O)N[C@@H](CC(C)C)C(=O)N[C@@H](CC(=O)O)C(=O)N2)C(C)C)[C@@H](C)CC)C(=O)N[C@@H](C(C)C)C(=O)N[C@@H](CC(C)C)C(=O)N[C@@H](CCCC)C(=O)N[C@@H](CO)C(=O)N[C@@H](CC(C)C)C(=O)N[C@@H](C(C)C)C(=O)N1)C(N)=O [SP-357] (Ac-LLQAE[R8]LLRALD[S5]VNIDE[R8]VL[Nle]SLV[S5]E[Nle]-NH2; staple 6-13, 19-26) | ++++ (≥30: ++++) | ≤ 200 nM | ++ (≤10 but <25: ++) | > 30 µM
3 | CCCC[C@H](NC(=O)[C@H](CCC(=O)O)NC(=O)[C@@H](NC(=O)[C@@H](NC(=O)[C@H](CC(C)C)NC(=O)[C@]1(C)CCCC=CCCC[C@](C)(NC(=O)[C@H](CCC(=O)O)NC(=O)[C@H](CC(=O)O)NC(=O)[C@H](CO)NC(=O)[C@H](Cc2ccccc2)NC(C)=O)C(=O)N[C@@H](C(C)C)C(=O)N[C@@H](CC(C)C)C(=O)N[C@@H](CCCC)C(=O)N1)C(C)C)[C@@H](C)CC)C(=O)N[C@@H](C)C(=O)N[C@@H](CC(C)C)C(N)=O [SP-154] (Ac-FSDE[S5]VL[Nle][S5]LVIE[Nle]AL-NH2; staple 5-9) | ++++ (≥30: ++++) | 200 to 400 nM | + (<10: +) | > 30 µM
4 | CCCC[C@H](NC(=O)[C@H](CCC(=O)O)NC(=O)[C@@H](NC(=O)[C@@H](NC(=O)[C@H](CC(C)C)NC(=O)[C@]1(C)CCCC=CCCC[C@](C)(NC(=O)[C@H](CCC(=O)O)NC(=O)[C@H](CC(=O)O)NC(=O)[C@@H](NC(=O)[C@H](Cc2ccccc2)NC(C)=O)[C@@H](C)O)C(=O)N[C@@H](C(C)C)C(=O)N[C@@H](CC(C)C)C(=O)N[C@@H](CCCC)C(=O)N1)C(C)C)[C@@H](C)CC)C(=O)N[C@@H](C)C(=O)N[C@@H](CC(C)C)C(N)=O [SP-153] (Ac-FTDE[S5]VL[Nle][S5]LVIE[Nle]AL-NH2; staple 5-9) | ++++ (≥30: ++++) | 400 to 700 nM | + (<10: +) | > 30 µM
5 | CC[C@H](C)[C@H](NC(=O)[C@H](Cc1ccccc1)NC(C)=O)C(=O)N[C@@H](CC(=O)O)C(=O)N[C@@H](CCC(=O)O)C(=O)N[C@]1(C)CCCCCCC=CCCC[C@@](C)(C(=O)N[C@@H](CCC(=O)O)C(=O)N[C@@H](CCSC)C(=O)N[C@@H](C)C(=O)N[C@@H](CC(C)C)C(N)=O)NC(=O)[C@H](C(C)C)NC(=O)[C@H](CC(C)C)NC(=O)[C@H](CO)NC(=O)[C@H](CCSC)NC(=O)[C@H](CC(C)C)NC(=O)[C@H](C(C)C)NC1=O [SP-177] (Ac-FIDE[R8]VLMSLV[S5]EMAL-NH2; staple 5-12) | +++ (≤15 but <30: +++) | 400 to 700 nM | ++++ (≥50: ++++) | 5 to 15 µM
6 | CCCC[C@H](NC(=O)[C@H](CCC(=O)O)NC(=O)[C@]1(C)CCCC=CCCCCCC[C@@](C)(NC(=O)[C@H](CCC(=O)O)NC(=O)[C@H](C)NC(=O)[C@@H](NC(=O)[C@H](CC(N)=O)NC(=O)[C@@H](NC(=O)[C@]2(C)CCCC=CCCCCCC[C@@](C)(NC(=O)[C@H](CCC(=O)O)NC(=O)CNC(=O)[C@H](CCC(N)=O)NC(=O)[C@H](CC(C)C)NC(=O)[C@H](CC(C)C)NC(C)=O)C(=O)N[C@@H](CC(C)C)C(=O)N[C@@H](CC(C)C)C(=O)N[C@@H](CCCNC(=N)N)C(=O)N[C@@H](C)C(=O)N[C@@H](CC(C)C)C(=O)N[C@@H](CC(=O)O)C(=O)N2)C(C)C)[C@@H](C)CC)C(=O)N[C@@H](C(C)C)C(=O)N[C@@H](CC(C)C)C(=O)N[C@@H](CCCC)C(=O)N[C@@H](CO)C(=O)N[C@@H](CC(C)C)C(=O)N[C@@H](C(C)C)C(=O)N1)C(N)=O [SP-355] (Ac-LLQGE[R8]LLRALD[S5]VNIAE[R8]VL[Nle]SLV[S5]E[Nle]-NH2; staple 6-13, 19-26) | ++++ (≥30: ++++) | ≤ 200 nM | ++ (≤10 but <25: ++) | > 30 µM
7 | CC[C@H](C)[C@H](NC(=O)[C@H](CCCNC(=N)N)NC(=O)[C@H](CC(N)=O)NC(=O)[C@H](CC(C)C)NC(=O)[C@H](C)NC(=O)[C@H](CCSC)NC(=O)[C@]1(C)CCCC=CCCC[C@](C)(NC(=O)[C@H](CCSC)NC(=O)[C@H](CC(C)C)NC(=O)[C@@H](NC(=O)[C@H](C)NC(=O)[C@H](CCC(N)=O)NC(=O)[C@H](CC(N)=O)NC(=O)[C@@H](NC(=O)[C@H](Cc2ccccc2)NC(C)=O)[C@@H](C)CC)C(C)C)C(=O)N[C@@H](CC(C)C)C(=O)N[C@@H](C(C)C)C(=O)N[C@@H]([C@@H](C)CC)C(=O)N1)C(N)=O [SP-272] (Ac-FINQAVLM[S5]LVI[S5]MALNRI-NH2; staple 9-13) | ++ (≤5 but <15: ++) | > 700 nM | ++++ (≥50: ++++) | ≤ 5 µM
